# Source: US20250290117A1, “MOLECULAR PHENOTYPIC ANTIMICROBIAL SUSCEPTIBILITY TESTING” (priority 2024, published 2025)
# Tested on: pathogen of the specimen
# Assay: Molecular phenotypic antimicrobial susceptibility test with direct PCR at various incubation timepoints (Table 7)
# Format: cell-based
# Experimental: Detection of Molecular Phenotypic Antimicrobial Susceptibility. Disclosed herein are the methods for the detection of phenotypic antimicrobial susceptibility via molecular methods. The present invention describes how a specimen 100 with a known microbial load is incubated and then exposed to a panel of antimicrobial agents to determine sensitivity (prevention of growth) or resistance (allowance of growth) to the specific antimicrobial agents tested utilizing molecular methods. Sample Collection. Specimens 100 are collected from patients using sterile collection processes that are employed in routine clinical care. Specimens are transported to the testing facility in boric acid preservative. […] The process for pathogen isolation includes steps of harvesting the pathogen (e.g., via centrifugation), isolating pathogen DNA via a DNA isolation and/or purification kit, and performing PCR on the pathogen DNA via PCR components (e.g., primers, enzymes, buffers) as would be known to the skilled artisan. […] This aliquot is used for antimicrobial susceptibility testing if indicated based on the pathogen detection results. […] Specimens 100 with lower pathogen loads could also be utilized in the antibiotic susceptibility phase of testing with or without a longer incubation period. […] Antimicrobial solutions are prepared at known concentrations. The specific antimicrobials and their concentrations are selected based on the pathogen of interest and the described antimicrobial resistance breakpoints for that specimen pathogen and antimicrobial combination. These antimicrobials have been selected based on those commonly utilized by healthcare providers in routine clinical care for the specific type of suspected infection. The number and types of antimicrobials utilized can be customized based on the infection source, pathogen detected, patient-specific factors such as allergies or other health conditions (e.g., chronic kidney disease or concurrent medication use), or healthcare provider preferences such as antimicrobial availability or cost. The antimicrobial solutions are prepared in liquid culture media (such as Muller Hinton Broth) to achieve the desired antimicrobial concentration and are then stored at −80° C. until use. For a given specimen, each antimicrobial is tested at a single or multiple antimicrobial concentration(s) which is its established breakpoints for sensitivity. The antimicrobial solutions are prepared and plated out for each specific pathogen. […] This allows for evaluation of pathogen load when no antimicrobial is present. Specimen Exposure to Antimicrobial Agents. The 1 mL aliquot of the specimen 100 previously mixed with culture media and incubated is obtained. Using optical density measurements as a guide, the specimen 100 is diluted to 0.5 McFarland. […] Antimicrobial exposure plates are typically placed into an incubator for 12-16 hours. […] Nucleic Acid Amplification of Antimicrobial Agent Exposed Pathogens. The antimicrobial exposure plate is removed after the period of incubation. The specimen then undergoes a purification or lysis step. For example, the specimen may undergo a purification step (e.g., magnetic bead-based or other separation protocol to isolate genetic material). In another example, the specimen may undergo a cell lysis step. For example, buffer (e.g., lysis buffer) may be added and incubated in the thermal cycler for preparation for direct PCR. Next, the specimen may undergo a polymerase chain reaction (PCR) testing protocol, whereby a semi-quantitative PCR method is utilized. This may be completed either with or without a specific extraction protocol step. The pathogens can be individually targeted and detected, or a universal genetic sequence can be utilized to detect the antimicrobial susceptibility of the specimen as a whole. The control wells are utilized as a threshold for determining antimicrobial sensitivity or resistance. […] Antimicrobial Susceptibility Result Interpretation.
# [1] = E. coli isolate 1189, antibiotic incubation time 4 hours
# [2] = E. coli isolate 1189, antibiotic incubation time 4 hours, control average Ct […]
# [3] = E. coli isolate 1189, antibiotic incubation time 6 hours
# [4] = E. coli isolate 1189, antibiotic incubation time 6 hours, control average Ct 16.992
# [5] = E. coli isolate 1189, antibiotic incubation time 8 hours
# [6] = E. coli isolate 1189, antibiotic incubation time 8 hours, control average Ct […]
# [7] = E. coli isolate 1189, antibiotic incubation time 10 hours
# [8] = E. coli isolate 1189, antibiotic incubation time 10 hours, control average Ct 15.995
# [9] = E. coli isolate 1189, antibiotic incubation time 12 hours
# [10] = E. coli isolate 1189, antibiotic incubation time 12 hours, control average Ct 15.495
# [11] = E. coli isolate 1189, antibiotic incubation time 14 hours
# [12] = E. coli isolate 1189, antibiotic incubation time 14 hours, control average Ct 15.826
# [13] = E. coli isolate 1189, antibiotic incubation time 16 hours
# [14] = E. coli isolate 1189, antibiotic incubation time 16 hours, control average Ct 14.880
Compound,Molecular Antimicrobial Susceptibility Result [1],Ct at Sensitive Breakpoint [2],Molecular Antimicrobial Susceptibility Result [3],Ct at Sensitive Breakpoint [4],Molecular Antimicrobial Susceptibility Result [5],Ct at Sensitive Breakpoint [6],Molecular Antimicrobial Susceptibility Result [7],Ct at Sensitive Breakpoint [8],Molecular Antimicrobial Susceptibility Result [9],Ct at Sensitive Breakpoint [10],Molecular Antimicrobial Susceptibility Result [11],Ct at Sensitive Breakpoint [12],Molecular Antimicrobial Susceptibility Result [13],Ct at Sensitive Breakpoint [14]
Piperacillin/Tazobactam,Sensitive (Antimicrobial wells with pathogen load detected below the control wells (typically >2 cycle thresholds later) may be reported as Sensitive),20.904,Sensitive (Antimicrobial wells with pathogen load detected below the control wells (typically >2 cycle thresholds later) may be reported as Sensitive),21.624,Sensitive (Antimicrobial wells with pathogen load detected below the control wells (typically >2 cycle thresholds later) may be reported as Sensitive),21.570,Sensitive (Antimicrobial wells with pathogen load detected below the control wells (typically >2 cycle thresholds later) may be reported as Sensitive),22.310,Sensitive (Antimicrobial wells with pathogen load detected below the control wells (typically >2 cycle thresholds later) may be reported as Sensitive),22.359,Sensitive (Antimicrobial wells with pathogen load detected below the control wells (typically >2 cycle thresholds later) may be reported as Sensitive),24.257,Sensitive (Antimicrobial wells with pathogen load detected below the control wells (typically >2 cycle thresholds later) may be reported as Sensitive),24.143
O=C1CN(/N=C/c2ccc([N+](=O)[O-])o2)C(=O)N1 [Nitrofurantoin],Sensitive (Antimicrobial wells with pathogen load detected below the control wells (typically >2 cycle thresholds later) may be reported as Sensitive),27.265,Sensitive (Antimicrobial wells with pathogen load detected below the control wells (typically >2 cycle thresholds later) may be reported as Sensitive),27.430,Sensitive (Antimicrobial wells with pathogen load detected below the control wells (typically >2 cycle thresholds later) may be reported as Sensitive),28.823,Sensitive (Antimicrobial wells with pathogen load detected below the control wells (typically >2 cycle thresholds later) may be reported as Sensitive),27.170,Sensitive (Antimicrobial wells with pathogen load detected below the control wells (typically >2 cycle thresholds later) may be reported as Sensitive),26.777,Sensitive (Antimicrobial wells with pathogen load detected below the control wells (typically >2 cycle thresholds later) may be reported as Sensitive),26.788,Sensitive (Antimicrobial wells with pathogen load detected below the control wells (typically >2 cycle thresholds later) may be reported as Sensitive),24.548
O=C(O)c1cn(C2CC2)c2cc(N3CCNCC3)c(F)cc2c1=O [Ciprofloxacin],Sensitive (Antimicrobial wells with pathogen load detected below the control wells (typically >2 cycle thresholds later) may be reported as Sensitive),27.666,Sensitive (Antimicrobial wells with pathogen load detected below the control wells (typically >2 cycle thresholds later) may be reported as Sensitive),27.144,Sensitive (Antimicrobial wells with pathogen load detected below the control wells (typically >2 cycle thresholds later) may be reported as Sensitive),28.104,Sensitive (Antimicrobial wells with pathogen load detected below the control wells (typically >2 cycle thresholds later) may be reported as Sensitive),27.715,Sensitive (Antimicrobial wells with pathogen load detected below the control wells (typically >2 cycle thresholds later) may be reported as Sensitive),27.182,Sensitive (Antimicrobial wells with pathogen load detected below the control wells (typically >2 cycle thresholds later) may be reported as Sensitive),27.128,Sensitive (Antimicrobial wells with pathogen load detected below the control wells (typically >2 cycle thresholds later) may be reported as Sensitive),28.446
Trimethoprim/Sulfamethoxazole [TMP/SMX],Sensitive (Antimicrobial wells with pathogen load detected below the control wells (typically >2 cycle thresholds later) may be reported as Sensitive),24.603,Sensitive (Antimicrobial wells with pathogen load detected below the control wells (typically >2 cycle thresholds later) may be reported as Sensitive),23.984,Sensitive (Antimicrobial wells with pathogen load detected below the control wells (typically >2 cycle thresholds later) may be reported as Sensitive),24.482,Sensitive (Antimicrobial wells with pathogen load detected below the control wells (typically >2 cycle thresholds later) may be reported as Sensitive),24.129,Sensitive (Antimicrobial wells with pathogen load detected below the control wells (typically >2 cycle thresholds later) may be reported as Sensitive),23.878,Sensitive (Antimicrobial wells with pathogen load detected below the control wells (typically >2 cycle thresholds later) may be reported as Sensitive),24.017,Sensitive (Antimicrobial wells with pathogen load detected below the control wells (typically >2 cycle thresholds later) may be reported as Sensitive),23.552
C[C@H]1COc2c(N3CCN(C)CC3)c(F)cc3c(=O)c(C(=O)O)cn1c23 [Levofloxacin],Sensitive (Antimicrobial wells with pathogen load detected below the control wells (typically >2 cycle thresholds later) may be reported as Sensitive),27.130,Sensitive (Antimicrobial wells with pathogen load detected below the control wells (typically >2 cycle thresholds later) may be reported as Sensitive),26.759,Sensitive (Antimicrobial wells with pathogen load detected below the control wells (typically >2 cycle thresholds later) may be reported as Sensitive),27.068,Sensitive (Antimicrobial wells with pathogen load detected below the control wells (typically >2 cycle thresholds later) may be reported as Sensitive),27.170,Sensitive (Antimicrobial wells with pathogen load detected below the control wells (typically >2 cycle thresholds later) may be reported as Sensitive),26.835,Sensitive (Antimicrobial wells with pathogen load detected below the control wells (typically >2 cycle thresholds later) may be reported as Sensitive),27.545,Sensitive (Antimicrobial wells with pathogen load detected below the control wells (typically >2 cycle thresholds later) may be reported as Sensitive),27.791
